For 9 molecules, CC50, EC50 and selectivity ratio results are on record in ChEMBL document CHEMBL3872210, “Synthesis and antiproliferative mechanism of action of pyrrolo[3',2':6,7] cyclohepta[1,2-d]pyrimidin-2-amines as singlet oxygen photosensitizers” (Eur J Med Chem, 2016).

Series [1] can be described thus: Dark toxicity against human HeLa cells assessed as reduction in cell survival measured after 30 mins by MTT assay. It is filed as cell-based. A general note: Tetrazolium dyes change colour on reduction, which living cells bring about.
Series [2] can be described thus: Photocytotoxicity against human MCF7 cells assessed as reduction in cell survival irradiated with 1.5 J/cm2 UV-light for 5 mins measured after 48 hrs by MTT assay. It is filed as functional, cell-based. As to conditions: MCF7, light or radiation study.
Series [3] is described as follows: Dark toxicity against human HT-29 cells assessed as reduction in cell survival measured after 30 mins by MTT assay. It is filed as cell-based.
The nature of series [4]: Selectivity index, ratio CC50 for cytotoxicity against human HT-29 cells to EC50 for photocytotoxicity against human HT-29 cells. The format is toxicity, cell-based. To be noted: read-out: Ratio CC50/EC50.
Series [5] can be described thus: Selectivity index, ratio CC50 for cytotoxicity against human MCF7 cells to EC50 for photocytotoxicity against human MCF7 cells. The format is toxicity, cell-based. As to conditions: read-out: Ratio CC50/EC50.
The nature of series [6]: Selectivity index, ratio of CC50 for cytotoxicity against human HeLa cells to EC50 for photocytotoxicity against human HeLa cells. It is filed as toxicity, cell-based. As to conditions: read-out: Ratio CC50/EC50.
Series [7] is described as follows: Photocytotoxicity against human HT-29 cells assessed as reduction in cell survival irradiated with 1.5 J/cm2 UV-light for 5 mins measured after 48 hrs by MTT assay. It is filed as functional, cell-based. As to conditions: HT-29, light or radiation study.
The nature of series [8]: Photocytotoxicity against human HeLa cells assessed as reduction in cell survival irradiated with 1.5 J/cm2 UV-light for 5 mins measured after 48 hrs by MTT assay. The format is functional, cell-based. As to conditions: light or radiation study.
Series [9] can be described thus: Dark toxicity against human MCF7 cells assessed as reduction in cell survival measured after 30 mins by MTT assay. The format is cell-based.

On to `COc1ccc(Cn2c(C(N)=O)cc3c2-c2nc(NC4CCCCC4)ncc2CCC3)cc1`, for which the 50% cytotoxic concentration (CC50) at 0.5 h in series [1], in series [3] and in series [9] was greater than 100000 nM throughout. Further, the EC50 – broadly, the concentration that produces a half-maximal response – in [2] is 180 nM; in series [7], 410 nM; in series [8], 120 nM. The selectivity ratio in [4] is greater than 243; in series [5], greater than 549; in series [6] it was greater than 813.
As to `COc1ccc(Cn2c(C(N)=O)cc3c2-c2nc(Nc4ccccc4)ncc2CCC3)cc1`, the half-maximal cytotoxic concentration (CC50) at 0.5 h in [1], in series [3] and in [9] was greater than 100000 nM each time. In addition, the EC50 in series [2] was determined as 280 nM; in series [7], 280 nM; in series [8] it was 160 nM. In addition, the figures for the selectivity ratio in [4], in series [5] and in [6] were greater than 360, greater than 358 and greater than 610, respectively.
For `CCOC(=O)c1cc2c(n1C)-c1nc(Nc3ccccc3)ncc1CCC2`, the CC50 at 0.5 h in [1], in series [3] and in series [9] was greater than 100000 nM throughout. Also, the EC50 in series [2] worked out at 140 nM; in [7] it was 290 nM; in series [8], 100 nM. Further, the figures for the selectivity ratio in series [4], in [5] and in series [6] were greater than 348, greater than 709 and greater than 1040, respectively.
For `CCOC(=O)c1cc2c(n1Cc1ccccc1)-c1nc(N)ncc1CCC2`, the half-maximal cytotoxic concentration (CC50) (commonly the concentration that lowers cell viability or growth by half) at 0.5 h is greater than 100000 nM in series [1], 79200 nM in series [3] and 73600 nM in series [9]. The EC50 in series [2] amounted to 790 nM; in [7] it was 280 nM; in series [8], 220 nM. The selectivity ratio in series [4] was 284; in series [5], 93; in series [6], greater than 455.
Consider `NC(=O)c1cc2c(n1Cc1ccccc1)-c1nc(NC3CCCCC3)ncc1CCC2`, for which the CC50 at 0.5 h in series [1], in series [3] and in [9] was greater than 100000 nM throughout. In addition, the EC50 was 180 nM in series [2], 370 nM in series [7] and 220 nM in series [8]. For the same molecule, the selectivity ratio in series [4] is greater than 270; in series [5], greater than 569; in series [6] it was greater than 463.
On to `Cn1c(C(N)=O)cc2c1-c1nc(Nc3ccccc3)ncc1CCC2`, for which the CC50 at 0.5 h in series [1], in series [3] and in series [9] was greater than 100000 nM throughout. Also, the concentration giving a half-maximal response (EC50) amounted to 4960 nM in series [2], 1850 nM in series [7] and 1120 nM in series [8]. Further, the selectivity ratio is greater than 54 in series [4], greater than 20 in series [5] and greater than 90 in series [6].
As to `CCOC(=O)c1cc2c(n1Cc1ccccc1)-c1nc(Nc3ccccc3)ncc1CCC2`, the CC50 at 0.5 h in series [1], in series [3] and in [9] was greater than 100000 nM in each case. The half-maximal effective concentration (EC50) in [2] is 240 nM; in series [7], 700 nM; in series [8] it was 280 nM. Moreover, the selectivity ratio was greater than 143 in series [4], greater than 412 in [5] and greater than 355 in [6].
In the case of `Cn1c(C(N)=O)cc2c1-c1nc(NC3CCCCC3)ncc1CCC2`, the results for the CC50 at 0.5 h in [1], in series [3] and in [9] were greater than 100000 nM, greater than 100000 nM and 75200 nM, respectively. Also, the concentration giving a half-maximal response (EC50) amounted to 1850 nM in series [2], 1500 nM in [7] and 820 nM in series [8]. The selectivity ratio in series [4] was greater than 67; in series [5], 41; in [6], greater than 121.
Turning to `CCOC(=O)c1cc2c(n1C)-c1nc(N)ncc1CCC2`, the CC50 at 0.5 h in series [1], in series [3] and in [9] was greater than 100000 nM throughout. In addition, the figures for the concentration giving a half-maximal response (EC50) in series [2], in series [7] and in [8] were 1540 nM, 1720 nM and 720 nM, respectively. Besides, the selectivity ratio in series [4] was greater than 58; in series [5], greater than 65; in series [6], greater than 139.
